Experimental data taken from patent publication US20070160725A1, “Use of extracts and compounds of allium-genus plants as preservatives in the food and agri-food industries” (MOUSALA, S., L., priority 2004, published 2007).
“And” between values parts separate entries of the source, which are not always exact repeats. Equal entries are not always repeated.

Experiments:
[1] = tested on: mold on the surface of the cheese; experiment: preservative activity on surface of cheese (PVA emulsion coating); conditions: fresh cheese, PVA emulsion with 2000 ppm pimaricin with 12000 ppm of potassium sorbate, diluted 1:1 with water, room temperature
Description: (§1) These tests were carried out according to the instructions for applying said commercial preparations on foods by immersion, such as spiced sausage, chorizo, cheese, etc. (see application examples), with different antimicrobial product doses.
The amounts of PTS and pimaricin with potassium sorbate (12000 ppm) as shown in the corresponding table are added to emulsions of 1 kg of PVA. Said preparations are diluted 1:1 with water and pieces of fresh cheese without surface treatment are submerged therein. Once the pieces are dry, each one is introduced into a sealed recipient and is left at room temperature. They are monitored, and the occurrence of mold on their surface is observed on the days herein set forth:
Amounts of complex in α-cyclodextrin (sample 2) and β-cyclodextrin (sample 3) are added to emulsions of 1 kg of PVA such that the amount of active ingredient, PTS, is 5000 ppm. On the other hand a sample (no. 1) is prepared with pimaricin (2000 ppm) and potassium sorbate (12000 ppm). The same process is followed as in the previous case upon applying the products and the samples are monitored, the occurrence of mold on the surface of the cheese being observed according to the following table: […]

mold = experiment: preserving activity on the surface of sausages (large intestine chorizo and spiced sausage); conditions: intestines submerged in a pimaricin solution at 500 ppm for 3 hours before stuffing
Description: as §1
Preparing sample 1: First a series of pig large intestines are submerged in a dispersion of pimaricin in water, 500 ppm, for three hours. Then two pieces are stuffed with 600 g each.
Then 4 other pieces are stuffed with 600 g each and are treated as follows: • Control sample: two pieces are left untreated. • Sample 2: Two pieces are submerged for 2 minutes in a dispersion of sucrose esters in water (10-40 g/kg of water), with a concentration of 3000 ppm of PTS.
All the pieces are subjected to drying between 24 and 26° C. and 90% relative humidity for 72 hours. Then they are hung and left to cure. The external appearance is monitored and the following results are obtained: […]

[2] = tested on: Proteus vulgaris, ATCC 13315; experiment: agar diffusion, inhibition halo; format: cell-based
Description: (§2) In order to evaluate the antimicrobial activity the agar diffusion technique with cellulose discs of 6 mm in diameter impregnated with the different active ingredient testing doses was used.
(§3) Antibacterial capacity was assessed against suspensions of 10^6 cells/ml, prepared from pure young cultures of each one of the strains to be tested. The culture medium used was Müller-Hinton medium (Merck).
(§4) After incubating the culture dishes inoculated with the different organisms at the corresponding temperatures, the microbial inhibition halos that appeared were measured, and said measurement includes the 6 mm diameter of the cellulose discs.

[3] = tested on: Pseudomonas aeruginosa, ATCC 13925; experiment: agar diffusion, inhibition halo; format: cell-based
Description: as §2, §3, §4

[4] = tested on: Staphylococcus aureus, isolated from hamburgers; experiment: agar diffusion, inhibition halo; format: cell-based
Description: as §2, §3, §4

[5] = tested on: Micrococcus luteus, isolated from a spiced sausage; experiment: agar diffusion, inhibition halo; format: cell-based
Description: as §2, §3, §4

[6] = tested on: Escherichia coli, CECT 515; experiment: agar diffusion, inhibition halo; format: cell-based
Description: as §2, §3, §4

[7] = tested on: Bacillus megaterium, ATCC 33085; experiment: agar diffusion, inhibition halo; format: cell-based
Description: as §2, §3, §4

[8] = tested on: Bacillus cereus, CECT 1178; experiment: agar diffusion, inhibition halo; format: cell-based
Description: as §2, §3, §4

[9] = tested on: Streptococcus faecalis, isolated from a spiced sausage; experiment: agar diffusion, inhibition halo; format: cell-based
Description: as §2, §3, §4

[10] = tested on: Salmonella typhimurium, ATCC 13311; experiment: agar diffusion, inhibition halo; format: cell-based
Description: as §2, §3, §4

[11] = tested on: Aspergillus niger, CECT 2700; experiment: agar diffusion, inhibition halo; format: cell-based
Description: as §2
(§5) Antifungal capacity was assessed against suspensions of […], harvested from pure cultures of the selected molds and against suspensions of 10^7 cells/ml for the case of yeasts. The culture medium used was the 2% Sabouraud-glucose medium (Merck).
as §4

[12] = tested on: Pullularia pullulans, CECT 2657; experiment: agar diffusion, inhibition halo; format: cell-based
Description: as §2, §5, §4

[13] = tested on: Candida albicans, ATCC 10231; experiment: agar diffusion, inhibition halo; format: cell-based
Description: as §2, §5, §4

[14] = tested on: Mucor plumbeus, isolated from cheese; experiment: agar diffusion, inhibition halo; format: cell-based; conditions: in polyvinyl acetate emulsion, 2000 ppm
Description: as §2, §5, §4

[15] = tested on: Penicillium funiculosum, CECT 2702; experiment: agar diffusion, inhibition halo; format: cell-based
Description: as §2, §5, §4

[16] = tested on: Penicillium sp, isolated from cheese; experiment: agar diffusion, inhibition halo; format: cell-based
Description: as §2, §5, §4

[17] = tested on: Saccharomyces cerevisiae, CECT 1324; experiment: agar diffusion, inhibition halo; format: cell-based
Description: as §2, §5, §4

[18] = tested on: Aspergillus terreus, isolated from the environment of the cheese maturation chamber; experiment: agar diffusion, inhibition halo; format: cell-based
Description: as §2, §5, §4

[19] = tested on: Trichoderma viride, CECT 2460; experiment: agar diffusion, inhibition halo; format: cell-based
Description: as §2, §5, §4

[20] = tested on: Geotrichum candidum CECT 1902; experiment: agar diffusion, inhibition halo; format: cell-based; conditions: in polyvinyl acetate emulsion, 2000 ppm
Description: as §2, §5, §4

[21] = 250 ppm (second column headed 250)
[22] = in polyvinyl acetate emulsion, 2000 ppm

C[C@@H]1C/C=C/C=C/C=C/C=C/[C@H](O[C@@H]2O[C@H](C)[C@@H](O)[C@H](N)[C@@H]2O)C[C@@H]2O[C@](O)(C[C@@H](O)C[C@H]3O[C@@H]3/C=C/C(=O)O1)C[C@H](O)[C@H]2C(=O)O [Pimaricin, pimaricin]
Visible occurrence of mold at [1]: 10 to 15 days and 10 to 16 days
Visible occurrence of mold at (mold): 6 days
inhibition halo diameter ([2]; 62.5 ppm): 0 mm
inhibition halo diameter ([2]; 250 ppm): 0 mm
inhibition halo diameter [2, 21]: 0 mm
inhibition halo diameter ([2]; 500 ppm): 0 mm
inhibition halo diameter ([2]; 1000 ppm): 0 mm
inhibition halo diameter ([3]; 62.5 ppm): 0 mm
inhibition halo diameter ([3]; 250 ppm): 0 mm
inhibition halo diameter [3, 21]: 0 mm
inhibition halo diameter ([3]; 500 ppm): 0 mm
inhibition halo diameter ([3]; 1000 ppm): 0 mm
inhibition halo diameter ([4]; 62.5 ppm): 0 mm
inhibition halo diameter ([4]; 250 ppm): 0 mm
inhibition halo diameter [4, 21]: 0 mm
inhibition halo diameter ([4]; 500 ppm): 0 mm
inhibition halo diameter ([4]; 1000 ppm): 0 mm
inhibition halo diameter ([5]; 100 ppm): 0 mm
inhibition halo diameter ([5]; 1000 ppm): 0 mm
inhibition halo diameter ([6]; 62.5 ppm): 0 mm
inhibition halo diameter ([6]; 250 ppm): 0 mm
inhibition halo diameter [6, 21]: 0 mm
inhibition halo diameter ([6]; 500 ppm): 0 mm
inhibition halo diameter ([6]; 1000 ppm): 0 mm
inhibition halo diameter ([7]; 62.5 ppm): 0 mm
inhibition halo diameter ([7]; 250 ppm): 0 mm
inhibition halo diameter [7, 21]: 0 mm
inhibition halo diameter ([7]; 500 ppm): 0 mm
inhibition halo diameter ([7]; 1000 ppm): 0 mm
inhibition halo diameter ([8]; 100 ppm): 0 mm
inhibition halo diameter ([8]; 1000 ppm): 0 mm
inhibition halo diameter ([9]; 62.5 ppm): 0 mm
inhibition halo diameter ([9]; 250 ppm): 0 mm
inhibition halo diameter [9, 21]: 0 mm
inhibition halo diameter ([9]; 500 ppm): 0 mm
inhibition halo diameter ([9]; 1000 ppm): 0 mm
inhibition halo diameter ([10]; 62.5 ppm): 0 mm
inhibition halo diameter ([10]; 250 ppm): 0 mm
inhibition halo diameter [10, 21]: 0 mm
inhibition halo diameter ([10]; 500 ppm): 0 mm
inhibition halo diameter ([10]; 1000 ppm): 0 mm
inhibition halo diameter ([11]; 62.5 ppm): 19 mm
inhibition halo diameter ([11]; 250 ppm): 19 mm
inhibition halo diameter [11, 21]: 19 mm
inhibition halo diameter ([11]; 500 ppm): 20 mm
inhibition halo diameter ([11]; 1000 ppm): 20 mm
inhibition halo diameter [11, 22]: 20 mm
inhibition halo diameter ([12]; 62.5 ppm): 24 mm
inhibition halo diameter ([12]; 250 ppm): 28 mm
inhibition halo diameter [12, 21]: 28 mm
inhibition halo diameter ([12]; 500 ppm): 30 mm
inhibition halo diameter ([12]; 1000 ppm): 23 mm
inhibition halo diameter ([13]; 62.5 ppm): 10 mm
inhibition halo diameter ([13]; 250 ppm): 12 mm
inhibition halo diameter [13, 21]: 12 mm
inhibition halo diameter ([13]; 500 ppm): 14 mm
inhibition halo diameter ([13]; 1000 ppm): 16 mm
inhibition halo diameter [14]: 13 mm
inhibition halo diameter ([15]; 62.5 ppm): 10 mm
inhibition halo diameter ([15]; 250 ppm): 11 mm
inhibition halo diameter [15, 21]: 10 mm
inhibition halo diameter ([15]; 500 ppm): 12 mm
inhibition halo diameter ([15]; 1000 ppm): 12 mm
inhibition halo diameter ([16]; 100 ppm): 24 mm
inhibition halo diameter ([16]; 1000 ppm): 26 mm
inhibition halo diameter [16, 22]: 18 mm
inhibition halo diameter ([17]; 100 ppm): 26 mm
inhibition halo diameter ([17]; 1000 ppm): 26 mm
inhibition halo diameter ([18]; 100 ppm): 14 mm
inhibition halo diameter ([18]; 1000 ppm): 15 mm
inhibition halo diameter ([19]; 62.5 ppm): 13 mm
inhibition halo diameter ([19]; 250 ppm): 15 mm
inhibition halo diameter [19, 21]: 14 mm
inhibition halo diameter ([19]; 500 ppm): 16 mm
inhibition halo diameter ([19]; 1000 ppm): 18 mm
inhibition halo diameter [20]: 15 mm
